The source of these data is US4933336A, “Thiadiazinone, oxadiazinone and triazinone derivatives, and their use for treating acute or chronic heart disease” (Laboratoires Sobio S.A., priority 1987, dated 1990).

Like-named read-outs stand apart in the source and are kept apart here.

Assay [1] has as its system conscious instrumented Dog. Put plainly: Cardiotonic activity in the conscious instrumented Dog. The class given is in vivo, dog (male Beagle). The note with it: Canis lupus familiaris, po; for change in vivo at 0.3 mg/kg: 0.30 mg/kg p.o.; for change in vivo at 0.03 mg/kg: 0.03 mg/kg p.o.; for change in vivo at 0.01 mg/kg: 0.01 mg/kg p.o.; for change in vivo at 10 mg/kg: 10.00 mg/kg p.o. As for the experimental part: Cardiotonic activity in the conscious instrumented Dog
Male Beagle dogs, at least 2 years old, weighing 12 to 18 kg were anaesthetised with pentobarbital sodium (30 mg/kg i.v.). Respiration was maintained by a Harward pump, model 613a. The heart was exposed through a left thoracotomy and a pericardial cardle was formed. A high fidelity micromanometer (Koenigsberg P5 -P7) was inserted into left venitricular lumen through a stab incision at the apex. Wires were exteriorised to the back of the animals, placed into a size adapted jacket, and the chest closed. The experiments were conducted on the conscious dogs, 1 or 2 weeks after the surgery, when the animals had completely recovered.
Measured parameters were : first derivative of left ventricular pressure, (dP/dt, mmHg/sec); heart rate (HR, beats/min.). A control period recording of 90 min. was made with the dogs placed in a quiet room, the recordings being made outside. Compounds to be tested were administered orally in gelatin capsules and the parameters measured for 5 hrs. at least.
Results were expressed as the percentage of the maximum±SEM.

The test system of assay [2] is Canine cardiac myofibrillar Ca++-dependent Mg++ ATPase. Put plainly: Measurement of myofibrillar Ca++-dependent Mg++ATPase activity (Ca++ sensitivity and maximal activity). The class given is biochemical, canine (dog). As to conditions: pH 7.0, 21° C. As for the experimental part:
1. Measurement of myofibrillar Ca++-dependent Mg++ATPase activity
the effect on myofibrillar Ca++sensitivity and on maximal activity of myofibrillar Ca++-dependent Mg++-ATPase was determined on canine cardiac myofibrils.
(a) Contractile protein preparation
Cardiac myofibrils free of membrane contaminants were prepared from left ventricular tissue of dog hearts using a modification of the method described by SOLARO et al, Biochem. Biophys. Acta, 245, 259-262, (1971). Before centrifugration, the heart homogenate was filtered through gauze.
After Triton X-100 treatments, the myofibrillar fraction was washed once by resuspension and centrifugation in 10 volumes of 1 mM EGTA, […], 30 mM imidazole, 2 mM MgCl2, pH 7.0. The pellet was then washed three times in 10 volumes of the same buffer without EGTA. Before the last centrifugation, the suspension of myofibrils was filtered through a stainless steel sieve with 0.25 mm meshes.
Myofibrils were kept in pellet overnight. Before use, the pellet was suspended in a small amount of buffer, the protein concentration was determined by the method of BRADFORD M., Anal. Biochem., 1976, 72, 248 and adjusted in order to have a concentration between 6 and 7 mg/ml.
(b) Myofibrillar ATPase activity
Ca++-dependent myfibrillar ATPase activity was determined at 21° C., pH 7.0, by measuring the rate of release of inorganic phosphate. All assays were performed within 24 hrs. of final purification, using the method described by SOLARO and RUEGG, CIRC. RES., 51, 290-4, (1982). Reaction mixtures (4 ml) containing 0.6-0.7 mg/ml myofibrillar protein, 80 mM KCl, 20 mM imidazole, 3 mM […], 1 mM EGTA, the desired amount of CaCl2, and the indicated concentration of drug or appropriate vehicle were preincubated for 6 min. prior to assay. The amount of CaCl2 was varied between 0 and 0.9 mM and the pCA (-log free Ca++) computed using 2.514×10^6 M^-1 as the apparent affinity of Ca++for EGTA at pH 7.0.
Reactions were initiated by the addition of Na2 ATP to final concentration of 2 mM. After an incubation period of 12 min., reactions were quenched by the addition of an equal volume of ice-cold 10% trichloroacetic acid. The protein was pelleted by centrifugation (2000 g, 15 min.) and Pi was assayed in the supernatant fraction using a modification of the method described by LANZETTA et al, Anal. Biochem., 100, 95-97, (1979).
The following solutions were prepared:
(1) 3.7% ammonium heptamolybdate in 0.12N H2 SO4
(2) 0.074% malachite green oxalate in 1% polyvinylic alcohol.
the colour reagent was prepared by mixing an equal volume of solution (1) and (2) 15 min. before the assay. For the assay, 1700 μl of 1% H2 SO4 and 1 ml of colour reagent were added to 100 μl of sample. Colour development occurred at room temperature for 30 min. and was quenched by the addition of 200 μl of 1M tri-potassium citrate. The absorbance was measured at 620 millimicrons.
The effect of each compound, tested at the indicated concentration, on the relation between pCa and percent activation was determined taking 100% for the maximum ATPase activity obtained with vehicle alone. The effect on Ca++ sensitivity was quantified by measuring the shift of the pCa giving 50% of the maximal control ATPase activity.
The effect on maximal ATPase activity was expressed as the percent change of ATPase activity for pCa=5.47.

[3] abbreviates: read-out: H.R. (heart rate), percentage of the maximum ± SEM.
The mark [4] stands for this setting: read-out: dP/dt Max (first derivative of left ventricular pressure), percentage of the maximum ± SEM.

Turning to `CSC1(C)C(=O)Nc2ccc(C3=NNC(=O)SC3)cc21` (stereo not shown) [Example 1, 1,3-Dihydro-5-(3,6-dihydro-2-oxo-2H-1,3,4-thiadiazin-5-yl)-3-methyl-3-methylthio-2H-indol-2-one], the values for the change in vivo at 0.3 mg/kg in assay [1] (setting [3]) and in assay [1] (setting [4]) were 17% and 53%, respectively. The “Max ATPase activity (%) (percent change of ATPase activity for pCa=5.47)” value in assay [2] (20 × 10^-5 molar) was -3 ± 2%. For the same compound, the “Ca2+ sensitivity p CA50 (shift of the pCa giving 50% of the maximal control ATPase activity)” value in assay [2] (20 × 10^-5 molar) came to 0.38 ± 0.03.

For `CC1(C)C(=O)Nc2ccc(C3=NNC(=O)SC3)cc21` [Example 2, 1,3-Dihydro-5-(3,6-dihydro-2-oxo-2H-1,3,4-thiadiazin-5-yl)-3,3,-dimethyl-2H-indol-2-one], in assay [2] (20 × 10^-5 molar), the “Max ATPase activity (%) (percent change of ATPase activity for pCa=5.47)” value is given as -9 ± 2% and the “Ca2+ sensitivity p CA50 (shift of the pCa giving 50% of the maximal control ATPase activity)” value is 0.16 ± 0.07.

Regarding `CC1SC(=O)NN=C1c1ccc2c(c1)C(C)(C)C(=O)N2` (stereo not shown) [Example 3], the values for the change in vivo at 0.03 mg/kg in assay [1] (setting [3]) and in assay [1] (setting [4]) were 8% and 71%, respectively. Besides, the “Max ATPase activity (%) (percent change of ATPase activity for pCa=5.47)” value in assay [2] (20 × 10^-5 molar) is on record as -12 ± 2%. Moreover, the “Ca2+ sensitivity p CA50 (shift of the pCa giving 50% of the maximal control ATPase activity)” value in assay [2] (20 × 10^-5 molar) was found to be 0.32 ± 0.06.

`CC1C(=O)Nc2ccc(C3=NNC(=O)SC3)cc21` (stereo not shown) [Example 4, 1,3-Dihydro-5-(3,6-dihydro-2-oxo-2H-1,3,4-thiadiazin-5-yl)-3-methyl-2H-indol-2-one]: in assay [2] (20 × 10^-5 molar), the “Max ATPase activity (%) (percent change of ATPase activity for pCa=5.47)” value was -6 ± 2% and the “Ca2+ sensitivity p CA50 (shift of the pCa giving 50% of the maximal control ATPase activity)” value is 0.15 ± 0.03.

In the case of `CSC1(C)C(=O)Nc2ccc(C3=NNC(=O)SC3C)cc21` (stereo not shown) [Example 5, 1,3-Dihydro-5-(3,6-dihydro-6-methyl-2-oxo-2H-1,3,4-thiadiazin-5-yl)-3-methyl-3-methylthio-2H-indol-2-one], in assay [1] (setting [3]), the change in vivo at 0.03 mg/kg amounted to 16%. The change in vivo at 0.03 mg/kg in assay [1] (setting [4]) came out at 45%. In assay [2] (20 × 10^-5 molar), the “Max ATPase activity (%) (percent change of ATPase activity for pCa=5.47)” value was -8 ± 1% and the “Ca2+ sensitivity p CA50 (shift of the pCa giving 50% of the maximal control ATPase activity)” value is listed as 0.40 ± 0.08.

For `CC1SC(=O)NN=C1c1ccc2c(c1)C1(CCCC1)C(=O)N2` (stereo not shown) [Example 6, 5'-(3,6-Dihydro-6-methyl-2-oxo-2H-1,3,4-thiadiazin-5-yl)-spiro[cyclopentane-1,3'-[3H]-indol]-2'(1'H)one], the results for the change in vivo at 0.3 mg/kg in assay [1] (setting [3]) and in assay [1] (setting [4]) were 7% and 33%, respectively.

Take `CC(=O)N1C(=O)C(C)(C)c2cc(C3=NNC(=O)SC3C)ccc21` (stereo not shown) [Example 7, 1-Acetyl-1,3-dihydro-5-(3,6-dihydro-6-methyl-2-oxo-H-1,3,4-thiadiazin-5-yl)3,3-dimethyl-2H-indol-2-one]: in assay [1] (setting [3]), the change in vivo at 0.01 mg/kg stood at 9%. For the same compound, the change in vivo at 0.01 mg/kg in assay [1] (setting [4]) worked out at 41%. Besides, in assay [2] (20 × 10^-5 molar), the “Max ATPase activity (%) (percent change of ATPase activity for pCa=5.47)” value is reported as -2 ± 3% and the “Ca2+ sensitivity p CA50 (shift of the pCa giving 50% of the maximal control ATPase activity)” value was 0.37 ± 0.06.

Consider `CSC1(C)C(=O)N(C(C)=O)c2ccc(C3=NNC(=O)SC3)cc21` (stereo not shown) [Example 9, 1-Acetyl-1,3-dihydro-5-(3,6-dihydro-2-oxo-2H-1,3,4-thiadiazin-5-yl)-3-methyl-3-methylthio-2H-indol-2-one], for which the change in vivo at 10 mg/kg in assay [1] (setting [3]) is 16%; in assay [1] (setting [4]) it was 68%.

For the compound `CSC1C(=O)Nc2ccc(C3=NNC(=O)SC3C)cc21` (stereo not shown) [Example 10, 1,3-Dihydro-5-(3,6-dihydro-6-methyl-2-oxo-2H-1,3,4-thiadiazin-5-yl)-3-methylthio-2H-indol-2-one], in assay [2] (3 × 10^-5 molar), the “Max ATPase activity (%) (percent change of ATPase activity for pCa=5.47)” value is on record as -9 ± 5% and the “Ca2+ sensitivity p CA50 (shift of the pCa giving 50% of the maximal control ATPase activity)” value was 0.36 ± 0.02.

As to `CC1SC(=O)NN=C1c1ccc2c(c1)C(=O)C(=O)N2` (stereo not shown) [Example 12, 5-(3,6-Dihydro-6-methyl-2-oxo-2H-1,3,4-thiadiazin-5-yl)-1H-indole-2,3-dione], the values for the change in vivo at 0.3 mg/kg in assay [1] (setting [3]) and in assay [1] (setting [4]) were 10% and 51%, respectively.

With `CSC1(SC)C(=O)Nc2ccc(C3=NNC(=O)SC3C)cc21` (stereo not shown) [Example 15, 1,3-Dihydro-5-(3,6-dihydro-6-methyl-2-oxo-2H-1,3,4-thiadiazin-5-yl)-3.3-di(methylthio)-2H-indol-2 one], in assay [2] (3 × 10^-5 molar), the “Max ATPase activity (%) (percent change of ATPase activity for pCa=5.47)” value was -4 ± 1% and the “Ca2+ sensitivity p CA50 (shift of the pCa giving 50% of the maximal control ATPase activity)” value is reported as 0.37 ± 0.11.

Consider `CC1SC(=O)NN=C1c1ccc2c(c1)C1(CC1)C(=O)N2` (stereo not shown) [Example 16, 5'-(3,6-Dihydro-6-methyl-2-oxo-2H-1,3,4 thiadiazin-5-yl) -spiro[cyclopropane-1,3'-[3H]indol]-2'-(1'H)-one], for which the figures for the change in vivo at 0.03 mg/kg in assay [1] (setting [3]) and in assay [1] (setting [4]) were 21% and 105%, respectively.

For `CC1SC(=O)NN=C1c1ccc2c(c1)C(C)(C)C(=O)N2C(=O)c1ccccc1` (stereo not shown) [Example 22, 1-Benzoyl-1,3-dihydro-5-(3,6-dihydro-6-methyl-2-oxo-2H-1,3,4-thiadiazin-5-yl)-3,3-dimethyl-2H-indol-2-one], the results for the change in vivo at 0.03 mg/kg in assay [1] (setting [3]) and in assay [1] (setting [4]) were 14% and 56%, respectively.

Regarding `CC1NC(=O)NN=C1c1ccc2c(c1)C(C)(C)C(=O)N2` (stereo not shown) [Example 37, 1,3-Dihydro-5-(1,2,3,6-tetrahydro-6-methyl-2-oxo-1,3,4-triazin-5-yl)-3,3-dimethyl-2H-indol-2-one], the change in vivo at 0.03 mg/kg in assay [1] (setting [3]) was 24%; in assay [1] (setting [4]), 85%.

In the case of `CC1SC(=O)NN=C1c1ccc2c(c1)C(C)(C)C(=O)N2C(=O)Oc1ccccc1` (stereo not shown) [Example 40, Phenyl 2,3-dihydro-5-(3,6-dihydro-6-methyl-2-oxo-2H-1,3,4-thiadiazin-5-yl)-3,3-dimethyl-2-oxo-1H-indole-1-carboxylate], in assay [2] (3 × 10^-5 molar), the “Max ATPase activity (%) (percent change of ATPase activity for pCa=5.47)” value is recorded as “+2 ± 2%” and the “Ca2+ sensitivity p CA50 (shift of the pCa giving 50% of the maximal control ATPase activity)” value turned out to be 0.15 ± 0.01.

Turning to `CC1SC(=O)NN=C1c1ccc2c(c1)C(C)(C)C(=O)N2C(=O)c1ccc(N)cc1` (stereo not shown) [Example 42, 1,3-Dihydro-5-(3,6-dihydro-6-methyl-2-oxo-2H-1,3,4-thiadiazin-5-yl)-3,3-dimethyl-1-[(4-aminophenyl)carbonyl]-2H-indol-2-one], in assay [2] (3 × 10^-5 molar), the “Max ATPase activity (%) (percent change of ATPase activity for pCa=5.47)” value is given as -9 ± 2% and the “Ca2+ sensitivity p CA50 (shift of the pCa giving 50% of the maximal control ATPase activity)” value is on record as 0.17 ± 0.03.
